Data on 5 compounds can be found in US20060147548A1, “Therapeutic delivery of carbon monoxide” (priority 2002, published 2006).

Data set [1] has as its system Myoglobin (Mb). The data set can be described thus: Conversion of myoglobin (Mb) to carbon monoxide myoglobin (MbCO), CO release. As to conditions: for conversion of Mb to MbCO: Mb 50 μM, absorption spectrum. It is filed as biochemical. An excerpt: This method has been previously developed to monitor and determine the amount of CO released from CO-RMs (7).
Data set [2] addresses T1, purified guanylate cyclase (Bos taurus, UniProt P16068).
T1 sequence (P16068 1-619): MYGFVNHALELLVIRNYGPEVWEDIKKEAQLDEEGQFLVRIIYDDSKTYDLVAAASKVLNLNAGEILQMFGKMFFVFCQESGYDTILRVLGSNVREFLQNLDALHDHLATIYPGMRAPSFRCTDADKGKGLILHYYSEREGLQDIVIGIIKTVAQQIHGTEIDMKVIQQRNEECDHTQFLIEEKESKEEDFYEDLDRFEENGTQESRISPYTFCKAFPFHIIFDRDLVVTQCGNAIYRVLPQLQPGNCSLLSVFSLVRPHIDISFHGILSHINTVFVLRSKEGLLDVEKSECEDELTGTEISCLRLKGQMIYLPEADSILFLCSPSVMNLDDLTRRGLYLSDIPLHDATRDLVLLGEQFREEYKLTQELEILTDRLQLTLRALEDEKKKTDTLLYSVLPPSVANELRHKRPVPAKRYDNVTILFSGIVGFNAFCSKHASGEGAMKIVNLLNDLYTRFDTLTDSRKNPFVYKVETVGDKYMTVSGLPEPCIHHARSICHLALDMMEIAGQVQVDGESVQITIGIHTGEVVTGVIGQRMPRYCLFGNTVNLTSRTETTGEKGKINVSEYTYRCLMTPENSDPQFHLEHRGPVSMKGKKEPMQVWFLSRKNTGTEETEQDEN
T1 sequence (P19687 1-691 partner): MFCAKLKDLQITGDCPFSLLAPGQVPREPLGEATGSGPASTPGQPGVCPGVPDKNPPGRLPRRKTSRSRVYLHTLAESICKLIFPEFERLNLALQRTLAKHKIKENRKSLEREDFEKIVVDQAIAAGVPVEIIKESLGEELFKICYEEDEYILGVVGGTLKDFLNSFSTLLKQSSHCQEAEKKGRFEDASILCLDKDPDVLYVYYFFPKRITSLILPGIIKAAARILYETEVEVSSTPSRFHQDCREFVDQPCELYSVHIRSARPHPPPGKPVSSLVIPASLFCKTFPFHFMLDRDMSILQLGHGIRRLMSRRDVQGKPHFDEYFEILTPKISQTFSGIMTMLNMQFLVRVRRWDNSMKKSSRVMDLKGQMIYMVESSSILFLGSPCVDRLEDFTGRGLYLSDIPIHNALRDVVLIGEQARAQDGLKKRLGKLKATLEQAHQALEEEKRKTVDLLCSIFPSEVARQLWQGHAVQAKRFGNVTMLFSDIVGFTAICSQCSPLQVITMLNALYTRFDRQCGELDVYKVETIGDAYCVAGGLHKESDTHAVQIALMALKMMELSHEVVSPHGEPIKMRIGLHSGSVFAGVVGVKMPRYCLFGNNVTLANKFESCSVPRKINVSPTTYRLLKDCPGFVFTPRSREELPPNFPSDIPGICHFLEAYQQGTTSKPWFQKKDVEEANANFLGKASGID
The settings on record: in vitro; literature reference (8); cited from earlier work.

Data set [3] relates to isolated aortic rings pre-contracted with phenylephrine. The data set can be described thus: Relaxation of isolated rat aortic rings pre-contracted with phenylephrine. The settings on record: for relaxation as percentage of the maximal phenylephrine-mediated contraction: Example 1; for percentage of relaxation: Example 4A, 100 μM CORM-3. It is filed as cell-based. The procedure: The method for the preparation of isolated aortic rings has been previously described (5; 7). The thoracic aorta was isolated from Sprague-Dawley rats (350-450 g) and flushed with cold Krebs-Henseleit buffer (4° C., pH 7.4) containing (in mM): 118 NaCl, 4.7 KCl, 1.2 KH2PO4, 1.2 MgSO4.7H2O, 22 NaHCO3, 11 Glucose, 0.03 K^+EDTA, 2.5 CaCl2 and supplemented with 10 AM indomethacin. Each aorta was trimmed of adventitial tissue and ring sections (˜3 mm length) were produced from the mid aortic segment. The rings were then mounted between two stainless steel hooks in 9-ml organ baths containing Krebs-Henseleit buffer which was maintained at 37° C. and continuously gassed with 95% O2-5% CO2. One hook was attached to a Grass FT03 isometric force transducer whilst the other was anchored to a sledge for regulation of the resting tension of the aortic ring. The rings were initially equilibrated for 30 min under a resting tension of 2 g which was previously determined to be optimal. Continuous recording of tension was made on a Grass 7D polygraph (Grass Instruments, Quincy, Mass.) in combination with a Biopac MP100 system using AcqKnowledge™ software (Linton Instruments, Norfolk, UK). Before each protocol was carried out, rings were contracted with a standard dose of KCl (100 mM) in order to provide an internal reference and to control for variability in contractile responsiveness between tissues.
The preparation of isolated aortic rings and recording of tension was as in Example 1. Before each protocol was carried out, rings were contracted with a standard dose of KCl (100 mM) in order-to provide an internal reference and to control for variability in contractile responsiveness between tissues. […] An additional set of experiments was performed in which the vascular endothelium was removed from the aortic tissue prior to CORM-3 addition.

In a further data set the test system is Lewis rats. The data set can be described thus: Effect on mean arterial pressure in anaesthetised rats. Format: in vivo, rat. As for the experimental part: Lewis rats (280-350 g) were anaesthetised by intramuscular injection of 1 ml/kg Hypnorm. Specially designed femoral artery and venous catheters were then surgically implanted as previously described (5; 6) and blood pressure monitored continuously using a polygraph recorder.

In the next data set the test system is human platelets. As to conditions: increased cGMP levels by YC-1 in the presence of CO; literature reference (1); cited from earlier work.
The subject of data set [4] is isolated aortic rings pre-contracted with phenylephrine. As to conditions: stated as known; species not given; cited from earlier work.
In data set [5] the test system is Myoglobin (Mb). As to conditions: stated as known; cited from earlier work.

Turning to `[C-]#[O+]` [CO, carbon monoxide], the “conversion of Mb to MbCO” value in the data set on Myoglobin (Mb) [1] is listed as “rapid conversion to carbon monoxide myoglobin (MbCO)”. Further, the “increase of enzymatic activity of purified guanylate cyclase” value in data set [2] is 4.4 fold.

With `NCC(=O)O.[C-]#[O+].[C-]#[O+].[C-]#[O+].[Cl][Ru]` [CORM-3, Ru(CO)3Cl(NH2CH2CO2)], the “relaxation as percentage of the maximal phenylephrine-mediated contraction” value in data set [3] (CORM-3 25 μM, after first addition, presence of YC-1 (5 μM, 30 min pre-incubation)) is 33%; in data set [3] (CORM-3 25 μM, after second addition, presence of YC-1 (5 μM, 30 min pre-incubation)), 66.6%; in data set [3] (CORM-3 25 μM, after third addition, presence of YC-1 (5 μM, 30 min pre-incubation)), 80.9%; in data set [3] (CORM-3 25 AM per addition, after first addition, absence of YC-1), 10.3%; in data set [3] (CORM-3 25 AM per addition, after second addition, absence of YC-1), 24.1%; in data set [3] (CORM-3 25 AM per addition, after third addition, absence of YC-1), 38%. Also, the relaxation entry in data set [3] (Example 3, 100 μM, within few minutes from addition) is given as “approximately 54%”; in data set [3] (Example 4B, 25 μM CORM-3, after the third addition, pre-treatment with YC-1 (1 μM, 30 min)) it was 77%; in data set [3] (Example 4B, 25 μM CORM-3 alone, after the third addition), “approximately 31%”; in data set [3] (Example 4C, CORM-3 alone, first addition), “approximately 37%”; in data set [3] (Example 4C, CORM-3 first addition, presence of L-NAME (100 μM) in the organ bath), 5%. For the same compound, the percentage of relaxation in data set [3] (first addition, in the presence of ODQ (10 μM, 15 min prior)) stood at 1.0±0.8%; in data set [3] (first addition, in the presence of glibenclamide (10 μM, 30 min prior)), 13.2±4.1%; in data set [3] (first cumulative addition, mean±S.E.M., 6 experiments), 37.5±5.3%; in data set [3] (second cumulative addition, mean±S.E.M., 6 experiments), 48.2±4.4%; in data set [3] (third cumulative addition, mean±S.E.M., 6 experiments), 53.9±4.3%. In addition, the “effect of YC-1 on CORM-3-mediated relaxation” value in data set [3] (Example 4B, 50 μM and 100 μM CORM-3, YC-1 1 μM pre-treatment) was “potentiation of relaxation”. Besides, in data set [3] (Example 4C, CORM-3 200 and 400 μM, L-NAME present), the “effect of L-NAME on relaxation at increased CORM-3 concentration” value was “reversed”. Besides, the “response of aortic rings without the endothelium (−E)” value in data set [3] (Example 4C, endothelium removed, unless CORM-3 increased to 400 μM) is recorded as “did not respond to CORM-3 in the same way as intact vessels”. In addition, the “conversion of Mb to MbCO” value in the data set on Myoglobin (Mb) [1] was “formation of MbCO is observed”. Further, in the data set on Myoglobin (Mb) [1] (incubating overnight at 37° C. in phosphate buffer at pH=7.4), the “loss of CO on incubation” value was “rapidly lost”. Also, the “decrease in MAP” value in the data set on Lewis rats (CORM-3 30 μmoles/kg i.v. first injection, YC-1 1.2 μmoles/kg i.v. 5 min before) came to 37.0±2.4 mmHg; in the data set on Lewis rats (CORM-3 30 μmoles/kg i.v. second injection, YC-1 1.2 μmoles/kg i.v. 5 min before first injection) it was 22.0±2.3 mmHg; in the data set with Lewis rats (CORM-3 alone 30 μmoles/kg i.v., first injection, recorded 20 min after injection), 9.4±2.8 mmHg; in the data set on Lewis rats (CORM-3 alone 30 μmoles/kg i.v., second bolus 20 min after the first), 13.3±4.9 mmHg.

With `[N]=O` [NO, nitric oxide], in data set [2], the “increase of enzymatic activity of purified guanylate cyclase” value was 130 fold.

As for `OCc1ccc(-c2nn(Cc3ccccc3)c3ccccc23)o1` [YC-1, 3-(5′-hydroxymethyl-2′-furyl)-1-benzyl-indazole, reference compound], the “change in vessel contractility” value in data set [3] (Example 4B, pre-treatment with YC-1 alone (1 μM, 30 min)) is listed as “did not cause any significant change in vessel contractility”. For the same compound, the “decrease in MAP” value in the data set with Lewis rats (YC-1 1.2 μmoles/kg i.v., after 5 min, before CORM-3) worked out at 7.0±1.6 mmHg. In addition, in the data set with human platelets, the “inhibition of platelet aggregation” value is “complete inhibition of platelet aggregation”.

In the case of [Fe(SPh)2(2,2′-bipyridine) (CO)2], the “dilatation of pre-contracted aortic rings” value in data set [4] is listed as “capable of promoting dilatation of pre-contracted aortic rings”. For the same compound, the “release of CO to myoglobin in solution” value in the data set with Myoglobin (Mb) [5] is reported as “does not release CO to myoglobin in solution”.
